# According to patent US20260365670A1, “EGFR INHIBITORS AND USES THEREOF” (DIZAL (JIANGSU) PHARMACEUTICAL CO., LTD., priority 2022, published 2026):
# Read-outs that look alike come from different tables or passages of the source.
# Tests used:
# EGFR (d746-750 C797S) = target: T1, EGFR (d746-750 C797S) (Homo sapiens, UniProt P00533, C797S/DEL746-750); test: Inhibition of EGFR (d746-750 C797S) biochemical enzymatic activity (HTRF); settings: EGFR (d746-750 C797S), 1 mM ATP, 1 h at room temperature, read-out: IC50 @Del19-C797S
# T1 construct: purchased signalchem
# How it was run: (§1)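 Each enzyme was first added to plates holding compound. The reaction was then started with ATP (1 mM) and peptide substrate (1 μM). It was stopped after 1 h at room temperature with EDTA detection reagents and read at 615/665 nm to derive IC50s.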
# [1] = system: Ba/F3 cells expressing EGFR mutations; test: Cell proliferation assay, Ba/F3 cells expressing EGFR mutations (CellTiter-Glo, 72 hours); format: cell-based
# How it was run: (§2)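 Ba/F3 cells carrying EGFR mutants (5000/well) or PC-9 cells (500/well) in RPMI1640 were dosed with compound series after overnight attachment and grown 72 h. Viability read by CellTiter-Glo, with day-0 counts subtracted; GI50 from curve fits of % proliferation versus DMSO control.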
# A-431 = test: Cell proliferation assay, A-431 cells (GI50, Table 6); format: cell-based
# [2] = target: T2, EGFR[T790M/C797S/d746-750] (Homo sapiens, UniProt P00533, C797S/DEL746-750/T790M); test: Inhibition of EGFR[T790M/C797S/d746-750] biochemical enzymatic activity (HTRF); settings: EGFR[T790M/C797S/d746-750], 1 mM ATP, 1 h at room temperature, read-out: IC50 @T790M - C797S - Del19
# T2 construct: purchased Carna Bio
# T2 sequence (P00533 with tags, fused parts or gaps DEL746-750/T790M/C797S limits assumed): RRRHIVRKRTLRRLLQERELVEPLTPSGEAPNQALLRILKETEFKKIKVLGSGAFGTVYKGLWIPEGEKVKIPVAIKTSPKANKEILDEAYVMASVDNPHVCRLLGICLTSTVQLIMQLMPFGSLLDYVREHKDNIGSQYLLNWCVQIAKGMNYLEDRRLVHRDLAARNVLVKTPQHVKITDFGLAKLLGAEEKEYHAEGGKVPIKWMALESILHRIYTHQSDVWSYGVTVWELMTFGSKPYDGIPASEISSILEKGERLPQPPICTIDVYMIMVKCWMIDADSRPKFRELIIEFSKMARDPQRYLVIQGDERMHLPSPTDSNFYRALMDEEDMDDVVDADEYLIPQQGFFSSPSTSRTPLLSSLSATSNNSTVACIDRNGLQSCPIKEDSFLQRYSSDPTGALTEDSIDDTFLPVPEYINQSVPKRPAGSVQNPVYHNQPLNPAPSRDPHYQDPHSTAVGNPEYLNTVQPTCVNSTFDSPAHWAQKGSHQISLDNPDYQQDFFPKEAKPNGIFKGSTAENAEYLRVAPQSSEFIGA
# How it was run: as §1
# EGFR Exon19Del = target: T3, EGFR Exon19Del (Homo sapiens, UniProt P00533, DEL746-750); test: Inhibition of EGFR Exon19Del biochemical enzymatic activity (HTRF); settings: EGFR Exon19Del, 1 mM ATP, 1 h at room temperature, read-out: IC50 @Del19
# T3 construct: purchased Carna Bio
# How it was run: as §1
# EGFR Exon19Del/T790M = target: T4, EGFR Exon19Del/T790M (Homo sapiens, UniProt P00533, DEL746-750/T790M); test: Inhibition of EGFR Exon19Del/T790M biochemical enzymatic activity (HTRF); settings: EGFR Exon19Del/T790M, 1 mM ATP, 1 h at room temperature, read-out: IC50 @Del19-T790M
# T4 construct: purchased Carna Bio
# T4 sequence (P00533 with tags, fused parts or gaps DEL746-750/T790M limits assumed): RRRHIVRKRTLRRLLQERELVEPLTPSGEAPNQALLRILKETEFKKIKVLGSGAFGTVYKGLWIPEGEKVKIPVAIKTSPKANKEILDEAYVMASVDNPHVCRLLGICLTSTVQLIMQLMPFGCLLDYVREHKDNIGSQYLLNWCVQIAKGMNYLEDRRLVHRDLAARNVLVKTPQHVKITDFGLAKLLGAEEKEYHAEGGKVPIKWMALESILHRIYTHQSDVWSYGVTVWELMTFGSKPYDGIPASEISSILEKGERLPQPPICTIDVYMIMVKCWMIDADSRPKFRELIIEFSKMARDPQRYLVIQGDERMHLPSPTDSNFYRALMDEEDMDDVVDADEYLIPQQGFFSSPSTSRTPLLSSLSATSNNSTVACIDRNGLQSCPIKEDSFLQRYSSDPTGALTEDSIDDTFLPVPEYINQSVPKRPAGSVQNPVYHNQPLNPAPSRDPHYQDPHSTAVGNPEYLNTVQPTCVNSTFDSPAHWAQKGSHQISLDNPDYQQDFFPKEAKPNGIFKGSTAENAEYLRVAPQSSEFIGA
# How it was run: as §1
# PC-9 = test: Cell proliferation assay, PC-9 cells (CellTiter-Glo, 72 hours); format: cell-based; settings: PC9 cells, read-out: GI50 PC9
# How it was run: as §2
# EGFR L858R = target: T5, EGFR L858R (Homo sapiens, UniProt P00533, L858R); test: Inhibition of EGFR L858R biochemical enzymatic activity (HTRF); settings: 1 mM ATP, 1 h at room temperature, read-out: IC50 @L858R
# T5 construct: purchased Carna Bio
# How it was run: as §1
# EGFR L858R/T790M = target: T6, EGFR L858R/T790M (Homo sapiens, UniProt P00533, L858R/T790M); test: Inhibition of EGFR L858R/T790M biochemical enzymatic activity (HTRF); settings: EGFR L858R/T790M, 1 mM ATP, 1 h at room temperature, read-out: IC50 @L858R-T790M
# T6 construct: purchased Carna Bio
# T6 sequence (P00533 25-1210 T790M/L858R): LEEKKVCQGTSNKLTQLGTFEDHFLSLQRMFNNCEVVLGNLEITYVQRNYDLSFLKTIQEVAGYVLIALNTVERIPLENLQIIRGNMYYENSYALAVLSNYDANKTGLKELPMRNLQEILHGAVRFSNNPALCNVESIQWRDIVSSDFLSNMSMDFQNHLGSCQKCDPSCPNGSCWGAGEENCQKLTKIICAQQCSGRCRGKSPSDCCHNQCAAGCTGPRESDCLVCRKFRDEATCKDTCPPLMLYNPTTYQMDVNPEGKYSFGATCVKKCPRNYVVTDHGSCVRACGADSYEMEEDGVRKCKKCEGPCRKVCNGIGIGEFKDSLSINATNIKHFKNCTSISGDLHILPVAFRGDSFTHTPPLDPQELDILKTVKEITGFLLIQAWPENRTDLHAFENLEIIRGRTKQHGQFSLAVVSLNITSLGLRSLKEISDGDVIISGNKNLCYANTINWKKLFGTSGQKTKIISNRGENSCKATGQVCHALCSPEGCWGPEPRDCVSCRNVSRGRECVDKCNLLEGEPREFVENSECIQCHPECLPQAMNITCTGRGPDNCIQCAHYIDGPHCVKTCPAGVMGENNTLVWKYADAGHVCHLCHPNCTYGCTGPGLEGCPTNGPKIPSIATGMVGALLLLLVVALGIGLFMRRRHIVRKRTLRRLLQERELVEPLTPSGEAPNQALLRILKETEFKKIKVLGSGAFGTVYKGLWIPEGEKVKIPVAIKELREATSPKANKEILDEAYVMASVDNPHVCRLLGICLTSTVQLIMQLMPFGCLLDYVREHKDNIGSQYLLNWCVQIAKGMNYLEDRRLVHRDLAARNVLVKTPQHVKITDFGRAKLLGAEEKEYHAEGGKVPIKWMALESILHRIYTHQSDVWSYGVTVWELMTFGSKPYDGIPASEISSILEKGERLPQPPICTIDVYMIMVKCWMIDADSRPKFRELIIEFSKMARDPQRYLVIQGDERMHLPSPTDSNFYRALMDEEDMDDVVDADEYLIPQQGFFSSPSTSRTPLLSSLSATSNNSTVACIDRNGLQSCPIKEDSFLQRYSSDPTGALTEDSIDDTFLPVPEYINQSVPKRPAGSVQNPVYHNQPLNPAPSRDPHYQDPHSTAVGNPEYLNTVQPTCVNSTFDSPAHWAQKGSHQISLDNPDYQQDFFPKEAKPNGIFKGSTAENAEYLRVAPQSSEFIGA
# How it was run: as §1
# EGFR[T790M/C797S/L858R] = target: T7, EGFR[T790M/C797S/L858R] (Homo sapiens, UniProt P00533, C797S/L858R/T790M); test: Inhibition of EGFR[T790M/C797S/L858R] biochemical enzymatic activity (HTRF); settings: EGFR[T790M/C797S/L858R], 1 mM ATP, 1 h at room temperature, read-out: IC50 @T790M- C797S - L858R
# T7 construct: purchased Carna Bio
# How it was run: as §1
# EGFR wild type = target: T8, EGFR wild type (Homo sapiens, UniProt P00533); test: Inhibition of EGFR wild type biochemical enzymatic activity (HTRF); settings: EGFR wild type, 1 mM ATP, 1 h at room temperature, read-out: IC50 @WT
# T8 construct: purchased Carna Bio
# T8 sequence (P00533 25-1210): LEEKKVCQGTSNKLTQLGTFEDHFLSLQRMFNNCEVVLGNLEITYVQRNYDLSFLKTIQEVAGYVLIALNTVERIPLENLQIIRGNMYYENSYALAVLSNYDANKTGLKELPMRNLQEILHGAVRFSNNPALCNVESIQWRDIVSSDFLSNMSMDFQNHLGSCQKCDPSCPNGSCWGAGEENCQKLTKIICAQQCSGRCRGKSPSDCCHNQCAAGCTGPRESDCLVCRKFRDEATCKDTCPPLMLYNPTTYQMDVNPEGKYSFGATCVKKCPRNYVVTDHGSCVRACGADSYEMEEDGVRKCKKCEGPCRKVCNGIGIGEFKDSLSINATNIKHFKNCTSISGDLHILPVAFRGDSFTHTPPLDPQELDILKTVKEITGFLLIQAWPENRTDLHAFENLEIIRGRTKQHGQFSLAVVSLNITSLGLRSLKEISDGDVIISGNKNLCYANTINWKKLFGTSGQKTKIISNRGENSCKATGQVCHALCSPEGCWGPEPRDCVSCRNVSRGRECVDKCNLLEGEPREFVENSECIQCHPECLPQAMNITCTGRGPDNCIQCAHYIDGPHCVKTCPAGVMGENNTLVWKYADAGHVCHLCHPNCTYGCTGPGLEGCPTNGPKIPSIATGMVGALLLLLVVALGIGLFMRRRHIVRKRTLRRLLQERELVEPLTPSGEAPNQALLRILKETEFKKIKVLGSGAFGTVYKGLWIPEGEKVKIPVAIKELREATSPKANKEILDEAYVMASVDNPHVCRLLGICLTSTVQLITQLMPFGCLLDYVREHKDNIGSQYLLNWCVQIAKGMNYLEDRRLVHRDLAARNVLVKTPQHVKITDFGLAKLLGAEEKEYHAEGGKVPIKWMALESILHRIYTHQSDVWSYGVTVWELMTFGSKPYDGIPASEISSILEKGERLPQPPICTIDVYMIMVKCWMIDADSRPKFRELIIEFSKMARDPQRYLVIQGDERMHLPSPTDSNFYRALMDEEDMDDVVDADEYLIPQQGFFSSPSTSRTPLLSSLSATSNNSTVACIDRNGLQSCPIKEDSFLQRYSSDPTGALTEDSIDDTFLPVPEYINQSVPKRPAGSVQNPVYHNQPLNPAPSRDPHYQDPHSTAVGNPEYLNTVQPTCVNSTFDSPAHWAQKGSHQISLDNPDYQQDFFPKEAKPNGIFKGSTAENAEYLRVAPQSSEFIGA
# How it was run: as §1
# EGFR (C797S L858R) = target: T9, EGFR (C797S L858R) (Homo sapiens, UniProt P00533, C797S/L858R); test: Inhibition of EGFR (C797S L858R) biochemical enzymatic activity (HTRF); settings: EGFR (C797S L858R), 1 mM ATP, 1 h at room temperature, read-out: IC50 @L858-C797S
# T9 construct: purchased signalchem
# T9 sequence (P00533 25-1210 C797S/L858R): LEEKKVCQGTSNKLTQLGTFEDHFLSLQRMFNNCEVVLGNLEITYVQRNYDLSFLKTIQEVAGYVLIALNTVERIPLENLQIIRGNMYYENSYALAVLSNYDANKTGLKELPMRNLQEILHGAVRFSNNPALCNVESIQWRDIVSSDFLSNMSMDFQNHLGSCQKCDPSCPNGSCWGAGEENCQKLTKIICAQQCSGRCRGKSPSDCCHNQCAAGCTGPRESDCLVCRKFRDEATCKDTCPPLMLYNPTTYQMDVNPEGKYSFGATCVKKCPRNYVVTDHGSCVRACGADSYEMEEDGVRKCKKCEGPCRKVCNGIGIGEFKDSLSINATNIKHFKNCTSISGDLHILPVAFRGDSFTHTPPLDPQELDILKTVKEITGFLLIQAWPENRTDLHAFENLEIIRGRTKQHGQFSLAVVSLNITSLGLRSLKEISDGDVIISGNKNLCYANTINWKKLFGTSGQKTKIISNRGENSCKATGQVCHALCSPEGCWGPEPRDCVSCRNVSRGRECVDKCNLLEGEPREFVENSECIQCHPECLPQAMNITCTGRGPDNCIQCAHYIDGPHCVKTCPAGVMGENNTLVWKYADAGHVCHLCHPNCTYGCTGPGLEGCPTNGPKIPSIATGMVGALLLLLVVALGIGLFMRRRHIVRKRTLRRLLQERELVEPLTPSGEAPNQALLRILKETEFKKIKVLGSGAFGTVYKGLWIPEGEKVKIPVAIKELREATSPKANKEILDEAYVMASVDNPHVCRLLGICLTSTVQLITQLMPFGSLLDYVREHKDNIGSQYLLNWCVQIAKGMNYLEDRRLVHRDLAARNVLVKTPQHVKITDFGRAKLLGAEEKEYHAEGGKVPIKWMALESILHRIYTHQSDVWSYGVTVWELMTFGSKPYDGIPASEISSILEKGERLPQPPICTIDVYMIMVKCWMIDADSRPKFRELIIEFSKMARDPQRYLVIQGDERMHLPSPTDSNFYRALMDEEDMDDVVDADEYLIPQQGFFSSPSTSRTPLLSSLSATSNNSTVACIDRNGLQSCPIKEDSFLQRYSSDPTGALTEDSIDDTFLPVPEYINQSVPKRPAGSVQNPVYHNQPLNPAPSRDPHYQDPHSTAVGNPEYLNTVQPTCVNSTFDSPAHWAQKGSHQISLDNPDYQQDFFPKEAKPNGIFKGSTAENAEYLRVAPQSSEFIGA
# How it was run: as §1
# [3] = BaF3 cells, EGFR DEL19 - C797S, read-out: GI50 DEL19 - C797S/BaF3
# [4] = BaF3 cells, EGFR DEL19 - T790-C797S, read-out: GI50 DEL19 - T790-C797S/BaF3
# [5] = BaF3 cells, EGFR L858R - C797S, read-out: GI50 L858R - C797S/BaF3
# [6] = BaF3 cells, EGFR L858R - T790-C797S, read-out: GI50 L858R - T790-C797S/BaF3
# [7] = BaF3 cells, EGFR L858R - T790M, read-out: GI50 L858R - T790M/BaF3
# [8] = BaF3 cells, EGFR L858R, read-out: GI50 L858R/BaF3
# [9] = EGFR DEL19 - T790M, read-out: GI50 DEL19 - T790M
# [10] = Homo sapiens, A-431, A-431 cells
SMILES,IC50 (EGFR (d746-750 C797S)) [nM],"GI50 [1, 3] [nM]","GI50 [1, 4] [nM]","GI50 [1, 5] [nM]","GI50 [1, 6] [nM]","GI50 [1, 7] [nM]","GI50 [1, 8] [nM]","GI50 [1, 9] [nM]",GI50 (A-431; [10]) [nM],IC50 [2] [nM],IC50 (EGFR Exon19Del) [nM],IC50 (EGFR Exon19Del/T790M) [nM],GI50 (PC-9) [nM],IC50 (EGFR L858R) [nM],IC50 (EGFR L858R/T790M) [nM],IC50 (EGFR[T790M/C797S/L858R]) [nM],IC50 (EGFR wild type) [nM],IC50 (EGFR (C797S L858R)) [nM],GI50 (A-431; A-431 cells) [nM]
"Cc1cc2cc(n1)-c1cnn(C)c1OCCN1CC3CCC(C3)(C1)n1c(nc3ccc(N4CCC5(CN(C)C5)C4)cc31)NC2=O (single isomer, unassigned) [Example B50B]",2.1,2,2,4,2,2,7,2,1570,2.4,5.1,3.6,8,26,3,1.5,413,7,–
"Cc1cc2cc(n1)-c1cnn(C)c1OCCN1CC3CCC(C3)(C1)n1c(nc3ccc(N4CCC5(CCN(C)CC5)C4)cc31)NC2=O (single isomer, unassigned) [Example B51B]",3.5,2,2,4,2,2,8,2,3030,3.4,6.1,5.6,8,21,5.9,2.9,546,8.4,–
"Cc1cc2cc(n1)-c1cnn(C)c1OCCN1CC3CCC(C3)(C1)n1c(nc3ccc(N4CCC5(CCN(C)C5)CC4)cc31)NC2=O (single isomer, unassigned) [Example B52A]",2050,102,169,180,41,191,176,363,–,37,> 5000,100,311,> 5000,> 5000,> 5000,> 5000,> 5000,7020
"Cc1cc2cc(n1)-c1cnn(C)c1OCCN1CC3CCC(C3)(C1)n1c(nc3ccc(N4CCC5(CCN(C)C5)CC4)cc31)NC2=O (single isomer, unassigned) [Example B52B]",2.4,2,2,2,2,2,2,7,–,2,5.4,4.5,4,6,3.5,1.6,8.3,3.2,879
"Cc1cc2cc(n1)-c1cnn(C)c1OCCN1CC3CCC(C3)(C1)n1c(nc3ccc(N4CC5CC4CN5C)cc31)NC2=O (single isomer, unassigned) [Example B53B]",1.9,2,2,4,2,2,13,6,2570,1.9,5.2,3.9,10,53,2.6,1.7,971,9.5,–
"Cc1cc2cc(n1)-c1cnn(C)c1OCCN1CC3CCC(C3)(C1)n1c(nc3ccc(N4CCC5(CC4)CCN5C)cc31)NC2=O (single isomer, unassigned) [Example B54A]",4720,280,241,584,107,298,801,527,–,233,> 5000,647,515,> 5000,> 5000,> 5000,> 5000,> 5000,3410
"Cc1cc2cc(n1)-c1cnn(C)c1OCCN1CC3CCC(C3)(C1)n1c(nc3ccc(N4CCC5(CC4)CCN5C)cc31)NC2=O (single isomer, unassigned) [Example B54B]",2,2,2,2,2,2,2,6,–,2.5,4.9,3.9,3,13,3.1,1.6,121,3.9,795
"Cc1cc2cc(n1)-c1cnn(C)c1OCCN1CC3CCC(C3)(C1)n1c(nc3ccc(N4CCN(C5CC5)CC4)cc31)NC2=O (single isomer, unassigned) [Example B55A]",> 5000,549,638,2560,350,939,4180,1100,–,2740,> 5000,> 5000,1930,> 5000,> 5000,> 5000,> 5000,> 5000,7540
